The IC50 is the point on the concentration scale where inhibition reaches its midpoint.

We go through six compounds from article PMC12295927, “Design, Synthesis, and Testing of 1,2,3-Triazolo-Quinobenzothiazine Hybrids for Cytotoxic and Immunomodulatory Activity” (International Journal of Molecular Sciences, 2025).

The subject of one test is MDM2 gene. The test can be described thus: RT-qPCR MDM2 gene expression in BEAS-2B. The format is cell-based, Human. The settings on record: Homo sapiens, 24 h, reference gene RPL41, vs untreated control, read-out: Relative level of expression, MDM2 gene. As for the experimental part:
(§1) Real-time polymerase chain reaction was performed for the reference gene RPL41 (ribosomal protein L41) and the tested genes: BCL2, AIFM2, MDM2, IL6 and IL8. […] The BEAS-2B line was selected for the experiment. The expression level of selected genes was measured after 24 h of incubation with the tested substances MJ1–MJ20 at a concentration of 100 μM (Table 3).
The RT-qPCR experiment was performed for the BEAS-2B cell line. In this experiment, the MDM2 gene was studied and RPL41 was used as reference gene (Figure 15).
(§2) Gene expression studies used quantitative RT-qPCR to assess the effect of the tested quinobenzothiazines (MJ1–MJ20) on the expression of apoptosis-related genes (BCL2, AIFM2, MDM2) and pro-inflammatory cytokines (IL6, IL8) (Table 4).
(§3) BEAS-2B and HCT116 cells were seeded in 6-well plates at 2 × 10^5 cells per well and cultured in RPMI-1640 (BEAS-2B) or DMEM (HCT116) medium supplemented with 10% FBS and 1% penicillin/streptomycin at 37 °C, 5% CO2 and 95% humidity. After 24 h of incubation, the tested compounds were added at a concentration of 100 µM. After 24 h, the medium was removed from the cells, washed with PBS solution, 0.5 mL of trypsin was added per well and after 5 min it was neutralized with medium. The obtained cell suspension was centrifuged for 3 min at 2000 rpm, the supernatant was removed, and the obtained pellet was suspended in 400 µL of phenozol. Samples were frozen at −20 °C and stored until further experiment and RNA isolation.
(§4) Total RNA was isolated from cells using the A&A Biotechnology Total RNA Mini kit according to the manufacturer’s protocol. RNA quality and quantity were assessed using a NanoDrop 2000 spectrophotometer at 260/280 nm. Reverse transcription was performed using the protocol (EURx NG dART RT Kit) to obtain cDNA. After incubation, samples were placed in a freezer (−20 °C) and stored until further analysis.
(§5) The experiment was performed according to the protocol (Brilliant III Ultra Fast SYBR® Green QPCR Master Mix, Quick Reference Guide for the Bio-Rad CFX96 Real-Time PCR Detection System). RT-qPCR reaction was performed using specific primers for target genes (BCL2, AIFM2, MDM2, IL6, IL8). Gene expression was normalized to the expression of the reference gene RPL41. Reaction profiles and results were performed using Bio-Rad CFX Maestro 1.1 software from Bio-Rad. Analysis and calculations of the results obtained during RT-qPCR were performed using Microsoft Excel.
(§6) The results were analyzed using the R = 2^−ΔΔCt method, which allows for determining the relative level of gene expression (R) compared to the control. Each experiment was performed in three technical and biological replicates. RT-qPCR allowed for precise assessment of changes in the expression of genes related to the processes of apoptosis and inflammatory response under the influence of quinobenzothiazines, which allowed for identifying their potential mechanisms of action at the molecular level.

A further test relates to BEAS-2B. Kind of test: Alamar Blue cytotoxicity test, BEAS-2B. Type of test: cell-based, Human. Conditions: 24 h incubation, read-out: IC50 values for BEAS-2B line. The protocol:
The cytotoxicity of the tested chemical compounds MJ1–MJ20 was tested using the Alamar Blue test. The experiment was conducted on cell lines BEAS-2B (Figure 7), HCT116 (Figure 8), U2OS (Figure 9), MCF7 (Figure 10), SH-SY5Y (Figure 11), NHDF (Figure 12), and A549 (Figure 13). Cells were seeded in 96-well plates and incubated with the tested compounds for 24 h. The test result is the IC50 parameter, which is a measure of cytotoxic activity expressed by the concentration of the substance that causes the death of half of the analyzed cells compared to the control.
In cytotoxicity studies, the Alamar Blue test was used, which is based on the ability of living cells to reduce the non-fluorescent dye resazurin to fluorescent resorufin, which reflects the metabolic activity of cells. BEAS-2B, NHDF, HCT116, MCF7, A549, SH-SY5Y and U2OS cell lines were cultured under standard conditions, in DMEM medium supplemented with 10% FBS and 1% penicillin/streptomycin, at 37 °C, 5% CO2 and 95% humidity. Cells were seeded in 96-well plates at 1 × 10^4 cells per well and incubated for 24 h. Then, the tested compounds (MJ1–MJ20) were added at different concentrations (from 6.25 µM to 100 µM). The control contained cells untreated with the tested compounds. After 24 h of incubation, 10 µL of Alamar Blue solution was added to each well and incubated for another 2–4 h under the same conditions. The signal was measured spectrophotometrically at wavelengths of 570 nm (for resorufin) and 600 nm (for resazurin) or optionally fluorimetrically, using an excitation maximum of 570 nm and an emission maximum of 585 nm. The results were presented as percentage of cell survival relative to the control, calculating the ratio of absorbance or fluorescence of the sample to the control value. The Alamar Blue assay, due to its sensitivity and non-toxicity, allows for an accurate assessment of metabolic activity and cell survival in response to the tested quinobenzothiazines.
(The colour change of resazurin is a common sign of viable cells or microbes.)

In another test the test system is IL8 gene. Kind of test: RT-qPCR IL8 gene expression in BEAS-2B. The format is cell-based. The settings on record: Homo sapiens, 24 h, reference gene RPL41, vs untreated control, read-out: Relative level of expression, IL8 gene. As for the experimental part:
as §1
(§7) The RT-qPCR experiment was performed for the BEAS-2B cell line. In this experiment, the IL6 and IL8 genes were studied and RPL41 was used as a reference gene (Figure 17 and Figure 18).
as §2, §3, §4, §5, §6
A general note: Quantitative PCR measures a nucleic acid by following its amplification.

The subject of a further test is AIFM2 gene. The test can be described thus: RT-qPCR AIFM2 gene expression in BEAS-2B. The settings on record: Homo sapiens, 24 h, reference gene RPL41, vs untreated control, read-out: Relative level of expression, AIFM2 gene. Type of test: cell-based, Human. The protocol:
as §1
The RT-qPCR experiment was performed for the BEAS-2B cell line. In this experiment, the AIFM2 gene was studied and RPL41 was used as reference gene (Figure 16).
as §2, §3, §4, §5, §6

For a further test, the system named is IL6 gene. The test can be described thus: RT-qPCR IL6 gene expression in BEAS-2B. Type of test: cell-based, Human. The settings on record: Homo sapiens, 24 h, reference gene RPL41, vs untreated control, read-out: Relative level of expression, IL6 gene. The protocol:
as §1, §7, §2, §3, §4, §5, §6

Another test concerns BCL2 gene. The test can be described thus: RT-qPCR BCL2 gene expression in BEAS-2B. Conditions: Homo sapiens, 24 h, reference gene RPL41, vs untreated control, read-out: Relative level of expression, BCL2 gene. Type of test: cell-based, Human. As for the experimental part: as §1
The RT-qPCR experiment was performed for the BEAS-2B cell line. In this experiment, the BCL2 gene was studied, and RPL41 was used as the reference gene (Figure 14).
as §2, §3, §4, §5, §6

Test [1] concerns xenografted MGC-803 tumor. Further details: method as in PMID 30345465. The settings on record: oral study; cited from earlier work.
For test [2], the system named is MGC-803 gastric cancer cells. Further details: method as in PMID 30345465. The settings on record: cited from earlier work.

Read-outs that look alike come from different tables or passages of the source.

In the case of `CSc1ccc2c(c1)Sc1cc3ccccc3nc1N2Cc1cn(Cc2ccc(Cl)cc2)nn1` [MJ18, 9-Methylthio-6-[(1-(4-chlorobenzyl)-1H-1,2,3-triazol-4-yl)methyl]-quino[3,2-b]-benzo[1,4]thiazine], the fold induction at 100 µM with MDM2 gene was determined as 7.1; with IL8 gene, 4; with AIFM2 gene it was 1.7; in the test on IL6 gene, 20.5; with BCL2 gene it was 41.5. In the test with BEAS-2B (Homo sapiens, 24 h), the IC50 is 74.1 µM.

`CSc1ccc2c(c1)Sc1cc3ccccc3nc1N2Cc1cn(Cc2ccccc2)nn1` [MJ16, 9-Methylthio-6-[(1-benzyl-1H-1,2,3-triazol-4-yl)-methyl]-quino[3,2-b]benzo[1,4]thiazine]: the fold induction at 100 µM was 6.1 in the test on MDM2 gene; 5.1 with IL8 gene; 1.3 in the test with AIFM2 gene; 11.4 with IL6 gene; 41.3 in the test with BCL2 gene. Further, the half-inhibitory concentration (IC50) in the test with BEAS-2B (Homo sapiens, 24 h) came out at 84.7 µM.

For `Fc1ccc(Cn2cc(CN3c4ccc(Cl)cc4Sc4cc5ccccc5nc43)nn2)cc1` [MJ12, 9-Chloro-6-((1-(4-fluorobenzyl)-1H-1,2,3-triazol-4-yl)methyl)-quino[3,2-b]benzo-[1,4]thiazine], the fold induction at 100 µM in the test with MDM2 gene worked out at 3.8; in the test with IL8 gene it was 4.9; in the test with AIFM2 gene, 0.6; in the test with IL6 gene it was 6.2; with BCL2 gene, 25.9. Moreover, the half-inhibitory concentration (IC50) was 75.6 µM in the test with BEAS-2B and 75.6 µM in the test with BEAS-2B (Homo sapiens, 24 h).

As to `c1ccc(Cn2cc(CN3c4ccccc4Sc4cc5ccccc5nc43)nn2)cc1` [MJ1], the fold induction at 100 µM is 5.4 in the test with MDM2 gene; 0.3 in the test with IL8 gene; 2.4 with AIFM2 gene; 3 in the test with IL6 gene; 23 with BCL2 gene. Also, in the test with BEAS-2B (Homo sapiens, 24 h), the IC50 is 73.8 µM.

Regarding `COc1ccc(-n2cc(CN3c4ccccc4Sc4ccccc43)nn2)cc1` [compound A], the “Growth of xenografted MGC-803 tumor in vivo” value in test [1] is “effectively inhibit the growth”. For the same compound, the IC50 in test [2] is 1.2 µM.

Take `Clc1ccc(Cn2cc(CN3c4ccccc4Sc4cc5ccccc5nc43)nn2)cc1` [MJ3, 6-[(1-(4-Chlorobenzyl)-1H-1,2,3-triazol-4-yl)methyl]-quino[3,2-b]benzo[1,4]thiazine]: the fold induction at 100 µM with MDM2 gene is 5.9; with IL8 gene, 0.3; in the test on AIFM2 gene, 1.3; in the test on IL6 gene, 1.3; in the test with BCL2 gene it was 5.7. Moreover, the IC50 with BEAS-2B (Homo sapiens, 24 h) worked out at 75.4 µM.
